Results reported in the SangsterLogP compilation.

Test: method code SF-AS, from DOI: 10.1080/01483918708066826

Row | Compound | logP
1 | O=C(O)C(c1ccccc1)n1cccc1 (stereo not given) | 1.57
2 | O=C(O)C(Cc1ccc(O)cc1)n1cccc1 (stereo not given) | 1.56
3 | O=C(O)C(c1ccc(Cl)cc1)n1cccc1 (stereo not given) | 2.3
4 | O=C(O)Cc1ccc(-n2cccc2)cc1 | 0.76
5 | O=C(O)C(Cc1ccc(Cl)cc1)n1cccc1 (stereo not given) | 2.08
6 | O=C(O)Cn1cccc1 | 0.7
7 | O=C(O)C(Cc1ccccc1)n1cccc1 (stereo not given) | 2.34
8 | O=C(O)C(Cc1ccc(F)cc1)n1cccc1 (stereo not given) | 2.04
9 | O=C(O)C(c1ccccc1F)n1cccc1 (stereo not given) | 2.49
10 | O=C(O)c1ccccc1-n1cccc1 | 2.04
